pEC50: −log10 of the molar value. Like-named read-outs stand apart in the source and are kept apart here.
Tests used:
[1] = system: Huntingtin (HTT) transcripts; assay: Quantitative splicing assay (HTT), qPCR; format: cell-based; conditions: Homo sapiens, GM04724 (CAG 70/20) Huntington's disease patient lymphoblasts, 24 h
Method in brief: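 Read-out is TaqMan qPCR on cDNA, quantifying inclusion of a cryptic exon within HTT intron 49. Cells were Huntington's patient lymphoblasts GM04724 (CAG 70/20), treated for 24 h at 0.15 nM–2.5 uM compound in 0.1% DMSO.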

[2] = system: MDR1-MDCK cell monolayers; assay: MDCK-MDR1 permeability assay (BBB penetration potential); format: in vitro ADME; conditions: dog, MDCK-MDR1, 120 min, 5 μM, pH 7.4
Protocol: (§1) Each determination is performed in duplicate. […] Analytical conditions are outlined below.

[3] = system: MDR1; assay: as above; format: in vitro ADME; conditions: dog; for efflux ratio at 120 min, 5 μM: MDCK-MDR1, pH 7.4, MDCK-MDR1: Efflux; for Papp A→B at 120 min, 5 μM: MDCK-MDR1, pH 7.4, MDCK-MDR1: Papp A-B; for Papp B→A at 120 min, 5 μM: MDCK-MDR1, pH 7.4, MDCK-MDR1: Papp B-A
Protocol: as §1

[4] = system: mHTT protein; assay: mHTT protein assay (2B7-MW1, Mesoscale Discovery); format: cell-based, human; conditions: GM04724 (CAG 70/20) Huntington's disease patient lymphoblast cells, 48 hours, 2B7-MW1 MSD; read-out: HTT Potency - Protein EC50 mHTT (average)
Method in brief: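 mHTT levels were read with the 2B7-MW1 antibody pair (N17 and polyQ epitopes) on MSD after 48 h dosing, 10 μM–0.6 nM. Cells were GM04724 HD lymphoblasts (CAG 70/20). A replica plate was read by CTG for cell viability.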

[5] = qPCR HTTex49_50, read-out: HTT Potency - Splicing: E49-50 EC50 (average)
[6] = qPCR cryptic exon 49b inclusion, read-out: HTT Potency - Splicing: E49b EC50 (average)

| SMILES | pEC50 [1, 5] | pEC50 [1, 6] | MDCK-MDR1: % Recov A-B [2] | MDCK-MDR1: % Recov B-A [2] | efflux ratio at 120 min, 5 μM [3] | Papp A→B at 120 min, 5 μM [3] | Papp B→A at 120 min, 5 μM [3] | pEC50 [4] | MDCK-MDR1: Efflux [2] | MDCK-MDR1: Papp A-B [2] | MDCK-MDR1: Papp B-A [2] |
| --- | --- | --- | --- | --- | --- | --- | --- | --- | --- | --- | --- |
| Oc1cc(-n2ccc(F)n2)ccc1-c1ccc(O[C@H]2C[C@@H]3CCC[C@@H](N3)[C@H]2F)nn1 (single isomer, unassigned) [115-ENT2] | 7.30 to 7.80 | 7.30 to 7.80 | 43% | 67% | 2 | 6.9 ×10⁻⁶ cm/s | 12 ×10⁻⁶ cm/s | 7.82 to 11.00 |  |  |  |
| Oc1cc(-c2nncs2)ccc1-c1ccc(O[C@H]2C[C@@H]3CCC[C@@H](N3)[C@H]2F)nn1 (single isomer, unassigned) [116-ENT2] | 6.30 to 7.00 | 6.30 to 7.00 | 90% | 95% | 5 | 11.3 ×10⁻⁶ cm/s | 61.4 ×10⁻⁶ cm/s | 7.30 to 7.80 |  |  |  |
| Oc1cc(-c2nnco2)ccc1-c1ccc(O[C@@H]2C[C@H]3CCC[C@H](N3)[C@@H]2F)nn1 (single isomer, unassigned) [117-ENT1] | 6.30 to 7.00 | 6.30 to 7.00 | 85% | 106% | 6 | 7.92 ×10⁻⁶ cm/s | 47.5 ×10⁻⁶ cm/s | 7.00 to 7.29 |  |  |  |
| Oc1cc(-c2nnco2)ccc1-c1ccc(O[C@H]2C[C@@H]3CCC[C@@H](N3)[C@H]2F)nn1 (single isomer, unassigned) [117-ENT2] | 6.30 to 7.00 | 6.30 to 7.00 | 78% | 93% | 5 | 7.22 ×10⁻⁶ cm/s | 37.9 ×10⁻⁶ cm/s | 7.30 to 7.80 |  |  |  |
| Cn1cc(-c2cc(O)c(-c3ccc(O[C@@H]4C[C@H]5CCC[C@H](N5)[C@@H]4F)nn3)c(F)c2)cn1 (single isomer, unassigned) [118-ENT1] | 7.00 to 7.29 | 7.00 to 7.29 | 52% | 80% | 5 | 6.21 ×10⁻⁶ cm/s | 33.3 ×10⁻⁶ cm/s | 7.00 to 7.29 |  |  |  |
| Cn1cc(-c2ccc(-c3ccc(O[C@@H]4C[C@H]5CCC[C@H](N5)[C@@H]4F)nn3)c(O)c2F)cn1 (single isomer, unassigned) [119-ENT1] | 7.30 to 7.80 | 7.30 to 7.80 | 56% | 80% | 10 | 3.4 ×10⁻⁶ cm/s | 33 ×10⁻⁶ cm/s | 7.30 to 7.80 |  |  |  |
| Cn1cc(-c2ccc(-c3ccc(O[C@H]4C[C@@H]5CCC[C@@H](N5)[C@H]4F)nn3)c(O)c2F)cn1 (single isomer, unassigned) [119-ENT2] | 7.30 to 7.80 | 7.30 to 7.80 | 59% | 64% | 3 | 9.17 ×10⁻⁶ cm/s | 29.4 ×10⁻⁶ cm/s | 7.00 to 7.29 |  |  |  |
| Cn1cc(-c2cc(O)c(-c3ccc(O[C@@H]4C[C@H]5CCC[C@H](N5)[C@@H]4F)nn3)cc2Cl)cn1 (single isomer, unassigned) [120-ENT1] | 7.30 to 7.80 | 7.30 to 7.80 | 29% | 77% | 8 | 3.51 ×10⁻⁶ cm/s | 29.7 ×10⁻⁶ cm/s | 7.30 to 7.80 |  |  |  |
| Cn1cc(-c2cc(O)c(-c3ccc(O[C@H]4C[C@@H]5CCC[C@@H](N5)[C@H]4F)nn3)cc2Cl)cn1 (single isomer, unassigned) [120-ENT2] | 7.00 to 7.29 | 7.30 to 7.80 | 28% | 71% | 7 | 4.47 ×10⁻⁶ cm/s | 30.2 ×10⁻⁶ cm/s | 7.00 to 7.29 |  |  |  |
| Cn1cc(-c2ccc(-c3ccc(O[C@H]4C[C@H]5CCC[C@H](N5)[C@@H]4F)nn3)c(O)c2)cn1 (single isomer, unassigned) [121-ENT1] | 5.00 to 6.30 | 5.00 to 6.30 | 66% | 73% | 5 | 11 ×10⁻⁶ cm/s | 50.3 ×10⁻⁶ cm/s | 5.00 to 6.30 |  |  |  |
| Cn1cc(-c2ccc(-c3ccc(O[C@@H]4C[C@@H]5CCC[C@@H](N5)[C@H]4F)nn3)c(O)c2)cn1 (single isomer, unassigned) [121-ENT2] | 5.00 to 6.30 | 5.00 to 6.30 | 75% | 90% | 3 | 13.5 ×10⁻⁶ cm/s | 45.9 ×10⁻⁶ cm/s | 5.00 to 6.30 |  |  |  |
| Oc1cc(-c2cn[nH]c2)ccc1-c1ccc(O[C@@H]2C[C@H]3COC[C@H](N3)[C@@H]2F)nn1 (single isomer, unassigned) [123-ENT1] | 6.30 to 7.00 | 6.30 to 7.00 | 86% | 90% | 14 | 6.22 ×10⁻⁶ cm/s | 87.8 ×10⁻⁶ cm/s | 6.30 to 7.00 |  |  |  |
| Cn1ccc2cc(-c3ccc(O[C@H]4CC5CCC[C@@H](N5)[C@H]4F)nn3)c(O)cc2c1=O (single isomer, unassigned) [125-ENT1] | 6.30 to 7.00 | 7.00 to 7.29 | 101% | 91% | 23 | 3.35 ×10⁻⁶ cm/s | 76 ×10⁻⁶ cm/s | 7.00 to 7.29 |  |  |  |
| Cn1ccc2cc(-c3ccc(O[C@@H]4C[C@H]5CCC[C@H](N5)[C@@H]4F)nn3)c(O)cc2c1=O (single isomer, unassigned) [125-ENT2] | 6.30 to 7.00 | 7.00 to 7.29 | 84% | 87% | 16 | 3.2 ×10⁻⁶ cm/s | 52 ×10⁻⁶ cm/s | 7.30 to 7.80 |  |  |  |
| Cn1ccc2cc(-c3ccc(O[C@H]4C[C@@H]5CC[C@@H](N5)[C@H]4F)nn3)c(O)cc2c1=O (single isomer, unassigned) [126-ENT1] | 6.30 to 7.00 | 7.00 to 7.29 | 100% | 95% | 14 | 3.5 ×10⁻⁶ cm/s | 48.3 ×10⁻⁶ cm/s | 7.30 to 7.80 |  |  |  |
| Cn1ccc2cc(-c3ccc(O[C@@H]4C[C@H]5CC[C@H](N5)[C@@H]4F)nn3)c(O)cc2c1=O (single isomer, unassigned) [126-ENT2] | 5.00 to 6.30 | 6.30 to 7.00 | 93% | 92% | 13 | 3.51 ×10⁻⁶ cm/s | 45.5 ×10⁻⁶ cm/s | 6.30 to 7.00 |  |  |  |
| Cn1ccc2cc(-c3ccc(O[C@H]4C[C@]5(C)CC[C@@](C)(N5)[C@H]4F)nn3)c(O)cc2c1=O (single isomer, unassigned) [127-ENT1] | 6.30 to 7.00 | 6.30 to 7.00 | 78% | 70% | 7 | 6.39 ×10⁻⁶ cm/s | 46.5 ×10⁻⁶ cm/s | 7.00 to 7.29 |  |  |  |
| Cn1ccc2cc(-c3ccc(O[C@@H]4C[C@@]5(C)CC[C@](C)(N5)[C@@H]4F)nn3)c(O)cc2c1=O (single isomer, unassigned) [127-ENT2] | 7.00 to 7.29 | 7.30 to 7.80 | 89% | 103% | 6 | 9.29 ×10⁻⁶ cm/s | 55.3 ×10⁻⁶ cm/s | 7.30 to 7.80 |  |  |  |
| Cn1ccc2cc(O)c(-c3ccc(O[C@H]4C[C@@H]5CCC[C@@H](N5)[C@H]4F)nn3)cc2c1=O (single isomer, unassigned) [128-ENT1] | 7.00 to 7.29 | 7.00 to 7.29 |  |  | 7 | 5.27 ×10⁻⁶ cm/s | 38.6 ×10⁻⁶ cm/s | 7.30 to 7.80 | 11 | 5.78 10^−6, cm/s | 65.2 10^−6, cm/s |
| Cn1ccc2cc(O)c(-c3ccc(O[C@H]4C[C@@H]5CC[C@@H](N5)[C@H]4F)nn3)cc2c1=O (single isomer, unassigned) [129-ENT1] | 6.30 to 7.00 | 6.30 to 7.00 | 89% | 91% | 12 | 4.29 ×10⁻⁶ cm/s | 52.8 ×10⁻⁶ cm/s | 7.30 to 7.80 |  |  |  |
| Cn1ccc2cc(O)c(-c3ccc(O[C@@H]4C[C@H]5CC[C@H](N5)[C@@H]4F)nn3)cc2c1=O (single isomer, unassigned) [129-ENT2] | 7.00 to 7.29 | 7.30 to 7.80 | 72% | 79% | 9 | 4.94 ×10⁻⁶ cm/s | 45.7 ×10⁻⁶ cm/s | 7.82 to 11.00 |  |  |  |
| Cn1ccc2cc(O)c(-c3ccc(O[C@H]4C[C@]5(C)CC[C@@](C)(N5)[C@H]4F)nn3)cc2c1=O (single isomer, unassigned) [130-ENT1] | 7.00 to 7.29 | 7.30 to 7.80 | 78% | 80% | 6 | 7.86 ×10⁻⁶ cm/s | 43.7 ×10⁻⁶ cm/s | 7.82 to 11.00 |  |  |  |

Reference: patent US12522597B2, “Methods and compositions for modulating splicing” (Skyhawk Therapeutics, Inc., priority 2019, dated 2026)
